Results: PubChem BioAssay AID2695 (Broad Institute, 2010)
Values after ≈ are worked out from the molar mass of the structure shown. Results filed as inconclusive are left out. Active and inactive are the calls of the source.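 How the source made its calls: active means a dose response, with MIC, the lowest growth-blocking dose, below the top tested dose; inconclusive means replicates split around the top dose, or self-fluorescent without titration; inactive means MIC above the top tested dose.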

Tested on: C. albicans SC5314 growth, alamar blue fluorescence
Assay: Candida albicans viability loss, MIC – SC5314, Alamar Blue fluorescence, dose response (AID 2695)
Conditions: 6.5 h

SMILES	MIC
COc1cc(/C=C2/SC(=S)N(Cc3ccccc3)C2=O)cc(OC)c1O	17.5 µM (≈ 6.78 µg/mL)
COc1cc(/C=C2\SC(=S)N(NC(=O)c3cccnc3)C2=O)ccc1O	> 33 µM (inactive)
Cc1ccc(Nc2c(-c3ccc(C)o3)nc3ncccn23)cc1	> 33 µM (inactive)
CCOc1cc(/C=C2\N=C(SC(C)C(N)=O)N(c3ccc(OC(F)F)cc3)C2=O)ccc1O (stereo unspecified)	> 33 µM (inactive)
N#CC1(C#N)C2=C(CCCC2)NC(c2ccccc2)C1(C#N)C#N (stereo unspecified)	> 33 µM (inactive)
O=C(COC(=O)Cc1ccc(S(=O)(=O)N2CCOCC2)s1)NCc1ccc(Cl)cc1	> 33 µM (inactive)
O=C(O)CN1C(=O)/C(=C\c2ccc(N3CCCCC3)o2)SC1=S	> 33 µM (inactive)
Cc1ccc(-c2nn3c(C)nnc3s2)cc1NC(=O)CSc1ccc(Cl)cc1	> 33 µM (inactive)
Nc1ncnc2c1ncn2C1OC(CO)CC1O (stereo unspecified)	> 33 µM (inactive)
COc1cc(/C=C2/CC/C(=C/c3ccc(O)c(OC)c3)C2=O)ccc1O	> 33 µM (inactive)

The next lines start with the values.

MIC	SMILES
4.1 µM (≈ 1.15 µg/mL)	N#C/C(=C/c1ccc([N+](=O)[O-])o1)c1nc2ccccc2[nH]1
2.1 µM (≈ 0.618 µg/mL)	Cc1ccc2nc(/C(C#N)=C/c3ccc([N+](=O)[O-])o3)[nH]c2c1
> 33 µM (inactive)	COc1cc(/C=C2\SC(=S)N(NC(=O)c3ccncc3)C2=O)ccc1O
16.6 µM (≈ 4.54 µg/mL)	CC(=O)c1ccc(Sc2ccccc2)c([N+](=O)[O-])c1
16.6 µM (≈ 5.35 µg/mL)	Cc1ccc(C(=O)c2no[n+]([O-])c2C(=O)c2ccc(C)cc2)cc1
> 33 µM (inactive)	O=C(Oc1c(-c2ccccc2)c(=O)n2c3c(cccc13)CC2)c1cccc([N+](=O)[O-])c1
